# Source: PMC6796870, “A two-step lineage reprogramming strategy to generate functionally competent human hepatocytes from fibroblasts” (Cell Research, 2019)
# Counter-ions that a name gives are not always drawn. Like-named read-outs stand apart in the source and are kept apart here.
# Tests used:
# hiHeps [1] = conditions: human
# hiHeps [2] = assay: Toxicity assay (TC50, 24 h, minimum of four viability parameters) in hiHeps; conditions: concentration giving 50% reduction of cell viability, values rounded for ease of use
# HBV = HBV infection of hiHeps, antiviral drug response; type: cell-based, hepatitis B virus; conditions: HBV-infected hiHeps; for HBV-DNA / HBV-RNA / HBV-proteins: 36 days, LAM 1 μM, ETV 0.5 μM during and after infection
# [3] = Table S9; ref 1,2 (Chen, M. et al. 2011); cited from earlier work
# hiHeps [4] = type: cell-based, human
# Experimental: The correlation between groups was evaluated by the Pearson correlation coefficient (r). b Time- and dose-dependent chronic toxicity of troglitazone in hiHeps. Mitochondrial activities were normalized to DMSO-treated cultures at corresponding day. n = 6. c Fluorescence evaluation of the pathological effects of DILI in hiHeps. Steatosis (up) and phospholipidosis (down) were evaluated in hiHeps after exposure to steatosis-causing compounds and phospholipidosis-causing compounds, respectively. Rifampin (non-steatosis/phospholipidosis-causing drug) or DMSO treatment were set as controls. For all compounds, images were captured at the concentration of 80% TC50. For all measurements, ‘n’ represents the number of biological replicates. The scale bars represent 50 μm. Data are presented as mean ± SEM
# hiHeps [5] = test system: hiHeps
# IFN-stimulated genes = assay: Expression of IFN-stimulated genes in hiHeps; type: cell-based, human; conditions: IFN-α treatment
molecule,measurement,setting,value
CN(C)[C@@H]1C(O)=C(C(N)=O)C(=O)[C@@]2(O)C(O)=C3C(=O)c4c(O)cccc4[C@@](C)(O)[C@H]3C[C@@H]12 [tetracycline hydrochloride],TC50,hiHeps [1],~400 µM
CO[C@H]1/C=C/O[C@@]2(C)Oc3c(C)c(O)c4c(O)c(c(/C=N/N5CCN(C)CC5)c(O)c4c3C2=O)NC(=O)/C(C)=C\C=C\[C@H](C)[C@H](O)[C@@H](C)[C@@H](O)[C@@H](C)[C@H](OC(C)=O)[C@@H]1C [rifampin],TC50,hiHeps [2],~100 µM
Nc1ccn([C@@H]2CS[C@H](CO)O2)c(=O)n1 [lamivudine],HBV-DNA,HBV,greatly inhibited
same,HBV-RNA,HBV,moderate effect
same,HBV-proteins,HBV,moderate effect
CC(=O)O[C@@]12CO[C@@H]1C[C@H](O)[C@@]1(C)C(=O)[C@H](O)C3=C(C)[C@@H](OC(=O)[C@H](O)[C@@H](NC(=O)OC(C)(C)C)c4ccccc4)C[C@@](O)([C@@H](OC(=O)c4ccccc4)[C@H]21)C3(C)C [Docetaxel],Label,[3],DILI concern by FDA
Cc1c(C)c2c(c(C)c1O)CCC(C)(COc1ccc(CC3SC(=O)NC3=O)cc1)O2 (centres unmarked) [troglitazone],Chronic toxicity,hiHeps [4],extensive cell death
CN(C)CCCN1c2ccccc2Sc2ccc(Cl)cc21 [chlorpromazine],TC50,hiHeps [2],≈ 25 μM
aflatoxin B1,Toxicity after rifampin plus CYP3A4 inhibitor (ketoconazole),hiHeps [5],rescued
same,Toxicity after treatment with CYP3A4 inducer (rifampin),hiHeps [5],increased
same,"DDI effects on toxicity (rifampin, rifampin + ketoconazole)",HepG2 cells,not detected
CCN(CC)CCNC(=O)c1c(C)[nH]c(/C=C2\C(=O)Nc3ccc(F)cc32)c1C [Sunitinib],Label,[3],DILI concern by FDA
C=C1[C@H](CO)[C@@H](O)C[C@@H]1n1cnc2c(=O)[nH]c(N)nc21 [entecavir],HBV-DNA,HBV,greatly inhibited
same,HBV-RNA,HBV,moderate effect
same,HBV-proteins,HBV,moderate effect
CC(C)C(=O)Nc1ccc([N+](=O)[O-])c(C(F)(F)F)c1 [flutamide],Toxicity after treatment with CYP3A4 inducer (rifampin),hiHeps [5],increased
same,"DDI effects on toxicity (rifampin, rifampin + ketoconazole)",HepG2 cells,not detected
interferon-alpha,"All major HBV markers (HBV-DNA, HBV-RNA, HBV-proteins)",HBV; 1000 U/mL after infection,inhibitory effect
same,Expression of IFN-stimulated genes,IFN-stimulated genes,upregulation
CCCCc1oc2ccccc2c1C(=O)c1cc(I)c(OCCN(CC)CC)c(I)c1 [amiodarone],TC50,hiHeps [2],~30 µM
